Test results published in patent publication EP0184331A2 (priority 1984, dated 1986).
Read-outs that look alike come from different tables or passages of the source.

What was measured:
Graffi virus = details: cited from earlier work
[1] = tested on: leukemic cells obtained by infection of mice with Graffi's leukemia virus; details: cited from earlier work
[2] = tested on: Vesicular stomatitis virus (VSV); details: cited from earlier work; for effectiveness in photoinactivation compared with TMP: 0.7 mW/cm^2 long-wave UV light; for light dose response in the inactivation of VSV: 20-30 µg/ml
[3] = tested on: Western equine encephalitis virus (WEE, an RNA virus); details: cited from earlier work
[4] = tested on: tobacco mosaic virus (TMV); details: 100 mW/cm^2 long-wave ultraviolet light; AMT and HMT indistinguishable; cited from earlier work
[5] = tested on: Intracellular influenza virus; details: 10 µg/ml of AMT, 1.2 mW/cm^2; cited from earlier work
[6] = tested on: cell-free influenza virus; details: 1.2 mW/cm^2, cited from earlier work
Herpes virus = details: cited from earlier work; for photoinactivation: in 0.9 minutes, 10 ug/ml, 1.2 mW/cm^2 long-wave ultraviolet light
influenza virus = details: cited from earlier work
[7] = tested on: herpes simplex virus (a DNA virus); details: cited from earlier work
[8] = tested on: vesicular stomatitis virus; details: approximately 5 minutes irradiation at 9 mW/cm^2, 8.2 µg/ml AMT; cited from earlier work
Moloney sarcoma virus = details: cited from earlier work
[9] = tested on: reovirus (a double-stranded RNA virus); details: cited from earlier work
[10] = tested on: vesicular stomatitis virus; details: 9 mW/cm^2 long-wave ultraviolet light; sufficient for inactivation; cited from earlier work
Rous sarcoma virus = details: cited from earlier work
[11] = cited from earlier work
canine hepatitis virus = details: cited from earlier work
[12] = tested on: foot-and-mouth disease virus; details: cited from earlier work
HTLV-III = format: cell-based, Human Tumor Leukemia Virus (HTLV) III
pseudorabies = details: cited from earlier work
NewCastle disease virus = details: cited from earlier work
Teschen disease virus = details: cited from earlier work
fowl pox virus = details: cited from earlier work
[13] = 30 minutes at 11.5 mW/cm^2 ultraviolet light (365 mm), 10 µg/ml
[14] = 30 minutes at 11.5 mW/cm^2 ultraviolet light, 10 µg/ml
[15] = at higher psoralen derivative concentrations
[16] = on a molar basis, within TMP solubility range

Question: For `Cc1coc2c(C)c3oc(=O)cc(C)c3cc12` [4,4',8-trimethylpsoralen], which “properties of the [intracellular] Graffi virus” value (Graffi virus; [13]) is on record?
Answer: remained unchanged

Question: What about the “effect on leukemic cells (ability to replicate or induce leukemia in adult mice)” value [1, 14] of the same compound?
Answer: killed the cells

Question: Which “properties of the [intracellular] Graffi virus” value (Graffi virus; [13]) does the source give for `Cc1c2occc2cc2ccc(=O)oc12` [8-methyl-psoralen] here?
Answer: remained unchanged

Question: What about the “effect on leukemic cells (ability to replicate or induce leukemia in adult mice)” value [1, 14] of the same compound?
Answer: killed the cells

Question: With `Cc1oc2c(C)c3oc(=O)cc(C)c3cc2c1CN` [AMT, 4'-aminomethyl 4,5',8-trimethyl-psoralen] as the compound, how does the “effectiveness in photoinactivation compared with TMP” value (shortened to “effectiveness … compared with TMP”) [2] read?
Answer: a thousand times more effective than TMP

Question: And the “photoinactivation of VSV, comparison of derivatives” value ([2]; 2-3 µg/ml, 0.7 mW/cm^2)?
Answer: superior to HMT and MMT

Question: And the “light dose response in the inactivation of VSV” value (“light dose response” for short) ([2]; 0.7 mW/cm^2)?
Answer: equivalent with respect to light dose response

Question: And the inactivation ([3]; approximately 5 minutes of irradiation at 1.9 mW/cm^2, 10 µg/ml AMT)?
Answer: 10^8 -fold

Question: And the “inactivation rates compared with TMP” value [3, 15]?
Answer: superior inactivation rates

Question: And the “effect on translational activity compared with TMP” value [4]?
Answer: slightly greater than the effects of TMP

Question: What about the “time required for a 10^7-fold inactivation” value [5] of the same compound?
Answer: 4 minutes

Question: What about the “rate of inactivation compared with equivalent amounts of HMT” value ([6]; at all psoralen concentrations) of the same compound?
Answer: more rapidly inactivated

Question: What about the inactivation ([6]; in 1 minute, 10 µg/ml of AMT) of the same compound?
Answer: 10 -fold

Question: What about the “effectiveness compared with HMT” value (Herpes virus; at lower concentrations of the psoralen derivatives, 1.2 mW/cm^2) of the same compound?
Answer: always more effective than an equal amount of HMT

Question: What about the photoinactivation (Herpes virus) of the same compound?
Answer: 10^4 -fold

Question: What about the “reduction of viral RNA polymerase activity” value (influenza virus; approximately 5 minutes irradiation at 9 mW/cm^2, 8.2 µg/ml AMT) of the same compound?
Answer: 100 -fold

Question: What about the “inactivation rates compared with TMP” value [7, 15] of the same compound?
Answer: superior inactivation rates

Question: And the “reduction of viral RNA polymerase activity” value [8]?
Answer: 100 -fold

Question: What about the inactivation (Moloney sarcoma virus) of the same compound?
Answer: 10 -fold

Question: What about the reduction of infectivity ([9]; 15 minutes irradiation at 9 mW/cm^2, AMT 2.8 x 10^-4 M = 82 ug/ml) of the same compound?
Answer: > 10^4 -fold

Question: What about the “photoreaction with viral RNA” value [10] of the same compound?
Answer: photoreact only with a single base (cytosine)

Question: With `Cc1oc2c(C)c3oc(=O)cc(C)c3cc2c1CO` [HMT, 4'-hydroxymethyl 4,5',8-trimethyl-psoralen] as the compound, how does the “effectiveness … compared with TMP” value [2] read?
Answer: a thousand times more effective than TMP

Question: And the “light dose response” value ([2]; 0.7 mW/cm^2)?
Answer: equivalent with respect to light dose response

Question: What about the “effect on translational activity compared with TMP” value [4] of the same compound?
Answer: slightly greater than the effects of TMP

Question: What about the photoinactivation (Herpes virus) of the same compound?
Answer: 10^4 -fold

Question: What about the “less effective than AMT in the photoinactivation of influenza virus” value (influenza virus; same conditions as AMT (9 mW/cm^2)) of the same compound?
Answer: about 10 -fold

Question: What about the reduction of infectivity ([9]; 20 minutes of irradiation at 9 mW/cm^2, HMT 2.8 x 10^-4 M = 72 µg/ml) of the same compound?
Answer: 5 -fold

Question: What about the inactivation (Rous sarcoma virus) of the same compound?
Answer: 10^4 -fold

Question: For `COCc1c(C)oc2c(C)c3oc(=O)cc(C)c3cc12` [MMT, 4'-methoxymethyl 4,5',8-trimethyl-psoralen], which “effectiveness … compared with TMP” value [2] is on record?
Answer: a thousand times more effective than TMP

Question: What about the “light dose response” value ([2]; 0.7 mW/cm^2) of the same compound?
Answer: equivalent with respect to light dose response

Question: Which results are given for `Cc1cc2cc3c(C)cc(=O)oc3c(C)c2o1` [TMP, 4,5',8-tri-methylpsoralen]?
Answer: effectiveness in photoinactivation compared with AMT [3, 16]: more effective; effectiveness in photoinactivation compared with AMT [7, 16]: more effective; solubility range [11]: 0 to 1 µg/mL

Question: What does the source list for `O=c1ccc2cc3ccoc3cc2o1` [psoralen, Psoralen]?
Answer: photoinactivation (canine hepatitis virus): photoinactivated; irradiation resisted by the virus [12]: up to 120 minutes; HTLV-III titers (HTLV-III): 1 x 10^5 FFU/mL; infectious HTLV-III recovered (HTLV-III): no infectious HTLV-III was recovered; properties of the [intracellular] Graffi virus (Graffi virus): remained unchanged; photoinactivation (pseudorabies): photoinactivated; effect on leukemic cells (ability to replicate or induce leukemia in adult mice) [1]: killed the cells; irradiation resisted by the virus (NewCastle disease virus): up to 120 minutes; irradiation resisted by the virus (Teschen disease virus): up to 120 minutes; RSV inactivated (Rous sarcoma virus): approximately 1 x 10^5 FFU/ml; photoinactivation (fowl pox virus): photoinactivated
